This passage reports inhibition results from patent US8492582B2, “N-acyl anthranilic acid derivative or salt thereof” (Toyama Chemical Co., Ltd., priority 2009, dated 2013).

Structures can show the parent of a compound that is named as a salt.

The first assay deals with type I collagen α1 chain mRNA in WI-38 cells. The assay is described as follows: Type I collagen α1 chain mRNA expression inhibition test. The format is cell-based. The settings on record: Homo sapiens, WI-38, 24 h, read-out: Inhibition rate (%) at 10 μmol/L. How it is done: Human embryonic lung fibroblast cell line WI-38 cells were suspended in a Dulbecco's modified Eagle's medium containing 10% fetal calf serum, and 7.5×10^4 cells were inoculated on a 12-well plate and cultured for 3 days, or 1.5×10^5 cells were inoculated and cultured for 2 days. After the growth of the cells to a subconfluent state, the culture medium was changed to a Dulbecco's modified Eagle's medium containing 0.4% fetal calf serum and 50 μg/mL ascorbic acid, and the cells were further cultured for 24 hours. Then, a test compound was added thereto, and, one hour later, TGF-β1 was added at a final concentration of 1 ng/mL. Twenty-four hours after the addition, the total RNA was extracted from the cells using an RNA extraction kit (SV Total RNA Isolation System, Promega), and cDNA was synthesized using a reverse transcriptase (ReverTra Ace, TOYOBO). The expression level of the type I collagen al chain mRNA was analyzed with a real-time PCR instrument (ABI PRISM 7700 Sequence Detection System, Applied Biosystems) by a real-time PCR method using a premix reagent of real-time PCR (SYBR Premix Ex Taq or SYBR Premix Ex Taq II (Perfect Real Time), TaKaRa). A PCR reaction was conducted with diluted cDNA as a template, using primers specific for a type I collagen α1 chain gene or a GAPDH gene as an internal standard, and the reaction product was measured. The PCR reaction was conducted by incubation at 95° C. for 10 seconds and 45 cycles of denaturation at 95° C. for 5 seconds and annealing/extension at 60° C. for 30 seconds. The expression level of the type I collagen α1 chain mRNA was corrected with GAPDH and was expressed as a relative value when the expression level obtained in the absence of the test compound was defined as 100%.
With `O=C(Nc1cc(-c2ccccc2OC(F)F)ccc1C(=O)O)c1cncc(-c2ccccc2)c1` [9b], the inhibition at 10 µM came out at 84%. Still for that read-out and setting: the same measure for `O=C(Nc1cc(-c2ccccc2F)ccc1C(=O)O)c1cncc(-c2ccccc2)c1` [44b, sodium 4-(2-fluorophenyl)-2-(5-phenylpyridine-3-carboxamido)-benzoate]: 93%; for `O=C(Nc1cc(-c2ccsc2)ccc1C(=O)O)c1cncc(-c2ccccc2)c1` [46b, sodium 2-(5-phenylpyridine-3-carboxamido)-4-(thiophen-3-yl)benzoate]: 69%. For `O=C(Nc1cc(N2CCCCC2)ccc1C(=O)O)c1cncc(-c2ccccc2)c1` [63b, Sodium 2-(5-phenylpyridine-3-carboxamido)-4-(piperidin-1-yl)benzoate], the inhibition at 10 µM came out at 65%.

Staying with this assay, now noted: Homo sapiens; 10 μmol/L test compound; WI-38 cells, TGF-β1 1 ng/mL, 24 hours; Table 4a; read-out: Inhibition rate (%) at 10 μmol/L.
Regarding `O=C(Nc1cc(-c2ccc[nH]2)ccc1C(=O)O)c1cc(N2CCCCC2)ccc1O` [157a, 2-(2-hydroxy-5-(piperidin-1-yl)benzamido)-4-(1H-pyrrol-2-yl)benzoic acid], the inhibition at 10 µM worked out at 84%.

Regarding `CC1CCCN(c2ccc(O)c(C(=O)Nc3cc(-c4ccccc4)ccc3C(=O)O)c2)C1` (centres unmarked) [166a, 2-(2-Hydroxy-5-(3-methylpiperidin-1-yl)benzamido)-4-phenylbenzoic acid hydrochloride], the inhibition at 10 µM worked out at 95%.

As for `O=C(Nc1cc(-c2ccccc2)ccc1C(=O)O)c1cc(OCCN2CCN(CCCO)CC2)ccc1O` [174a, 2-(2-hydroxy-5-(2-(4-(3-hydroxypropyl)piperazin-1-yl)ethoxy)benzamido)-4-phenylbenzoic acid], the inhibition at 10 µM is 86%. Regarding `O=C(Nc1cc(-c2ccccc2)ccc1C(=O)O)c1cc(OCCN2CCC2)ccc1O` [177a, 2-(5-(2-(azetidin-1-yl)ethoxy)-2-hydroxybenzamido)-4-phenylbenzoic acid hydrochloride], the inhibition at 10 µM worked out at 82%. Regarding `O=C(Nc1cc(-c2ccccc2)ccc1C(=O)O)c1cc(OCCN2CCC(CCO)CC2)ccc1O` [180a, 2-(2-Hydroxy-5-(2-(4-(hydroxyethyl)piperidin-1-yl)ethoxy)benzamido)-4-phenylbenzoic acid hydrochloride], the inhibition at 10 µM stood at 85%.

Turning to `O=C(Nc1cc(-c2ccccc2)ccc1C(=O)O)c1cc(OCCN2CCCCCC2)ccc1O` [181a, 2-(5-(2-(Homopiperidin-1-yl)ethoxy)-2-hydroxybenzamido)-4-phenylbenzoic acid hydrochloride], the inhibition at 10 µM was determined as 74%. For the compound `CCN(CCO)CCOc1ccc(O)c(C(=O)Nc2cc(-c3ccccc3)ccc2C(=O)O)c1` [182a, 2-(5-(2-(Ethyl(2-hydroxyethyl)amino)ethoxy)-2-hydroxybenzamido)-4-phenylbenzoic acid hydrochloride], the inhibition at 10 µM came to 82%. Take `CCCN1CCN(CCOc2ccc(O)c(C(=O)Nc3cc(-c4ccccc4)ccc3C(=O)O)c2)CC1` [183a, 2-(2-hydroxy-5-(2-(4-propylpiperazin-1-yl)ethoxy)benzamido)-4-phenylbenzoic acid dimethanesulfonate]: the inhibition at 10 µM turned out to be 81%. Consider `CN1CCC(COc2ccc(O)c(C(=O)Nc3cc(-c4ccccc4)ccc3C(=O)O)c2)CC1` [189a, 2-(2-hydroxy-5-(1-methylpiperidin-4-ylmethoxy)benzamido)-4-phenylbenzoic acid hydrochloride], for which the inhibition at 10 µM came out at 95%. With `CN1CCC(CCOc2ccc(O)c(C(=O)Nc3cc(-c4ccccc4)ccc3C(=O)O)c2)CC1` [190a, 2-(2-Hydroxy-5-(2-(1-methylpiperidin-4-yl)ethoxy)benzamido)-4-phenylbenzoic acid hydrochloride], the inhibition at 10 µM is 86%. `CN1CCN(c2ccc(O)c(C(=O)Nc3cc(-c4ccccc4)ccc3C(=O)O)c2)CC1=O` [193a, 2-(2-Hydroxy-5-(4-methyl-3-oxopiperazin-1-yl)benzamido)-4-phenylbenzoic acid]: the inhibition at 10 µM was 85%.

For the compound `O=C(Nc1cc(-c2cccc(F)c2)ccc1C(=O)O)c1cc(N2CCOCC2)ccc1O` [198a, 4-(3-Fluorophenyl)-2-(2-hydroxy-5-(morpholin-4-yl)benzamido)benzoic acid], the inhibition at 10 µM is 81%.

Turning to `Cc1cccc(-c2ccc(C(=O)O)c(NC(=O)c3cc(N4CCOCC4)ccc3O)c2)c1` [201a, 2-(2-Hydroxy-5-(morpholin-4-yl)benzamido)-4-(3-methylphenyl)benzoic acid], the inhibition at 10 µM was 94%.

For the compound `COc1cccc(-c2ccc(C(=O)O)c(NC(=O)c3cc(N4CCOCC4)ccc3O)c2)c1` [204a, 2-(2-Hydroxy-5-(morpholin-4-yl)benzamido)-4-(3-methoxyphenyl)benzoic acid], the inhibition at 10 µM was found to be 89%.

The assay is the same for the next values; noted with them: Homo sapiens; 10 μmol/L test compound; WI-38 cells, TGF-β1 1 ng/mL, 24 hours; Table 4b; read-out: Inhibition rate (%) at 10 μmol/L.
Regarding `O=C(Nc1cc(-c2ccccc2)ccc1C(=O)O)c1ccc(-c2ccccc2)nc1` [3b, 4-phenyl-2-(6-phenylpyridine-3-carboxamido)benzoic acid], the inhibition at 10 µM turned out to be 83%. With `O=C(Nc1cc(-c2ccccc2)ccc1C(=O)O)c1ccnc(-c2ccccc2)c1` [4b, 4-Phenyl-2-(2-phenylpyridine-4-carboxamido)benzoic acid], the inhibition at 10 µM came to 93%. As for `O=C(Nc1cc(-c2ccccc2)ccc1C(=O)O)c1cccc(-c2ccccc2)n1` [5b, 4-Phenyl-2-(6-phenylpyridine-2-carboxamido)benzoic acid], the inhibition at 10 µM was 72%. In the case of `CCNc1cccc(-c2ccc(C(=O)O)c(NC(=O)c3cncc(-c4ccccc4)c3)c2)c1` [11b, 4-(3-(ethylamino)phenyl)-2-(5-phenylpyridine-3-carboxamido)benzoic acid], the inhibition at 10 µM was determined as 80%.

As to `CNc1ccccc1-c1ccc(C(=O)O)c(NC(=O)c2cncc(-c3ccccc3)c2)c1` [12b, 4-(2-(Methylamino)phenyl)-2-(5-phenylpyridine-3-carboxamido)benzoic acid], the inhibition at 10 µM stood at 87%. Consider `CNc1cccc(-c2ccc(C(=O)O)c(NC(=O)c3cncc(-c4ccccc4)c3)c2)c1` [13b, 4-(3-(Methylamino)phenyl)-2-(5-phenylpyridine-3-carboxamido)benzoic acid], for which the inhibition at 10 µM came out at 92%. For `Nc1ccccc1-c1ccc(C(=O)O)c(NC(=O)c2cncc(-c3ccccc3)c2)c1` [27b, 4-(2-Aminophenyl)-2-(5-phenylpyridine-3-carboxamido)benzoic acid], the inhibition at 10 µM worked out at 72%. Take `O=C(Nc1cc(-c2ccccc2)ccc1-c1nnn[nH]1)c1cncc(-c2ccccc2)c1` [29b, 5-phenyl-N-(5-phenyl-2-(1H-tetrazol-5-yl)phenyl)pyridine-3-carboxamide]: the inhibition at 10 µM was 86%.

As to `Cc1ccccc1-c1ccc(C(=O)O)c(NC(=O)c2cncc(-c3ccccc3)c2)c1` [32b, Sodium 4-(2-methylphenyl)-2-(5-phenylpyridine-3-carboxamido)benzoate], the inhibition at 10 µM was 81%. Same read-out and setting: the figure for `O=C(Nc1cc(-c2ccccc2C(F)(F)F)ccc1C(=O)O)c1cncc(-c2ccccc2)c1` [33b, Sodium 2-(5-phenylpyridine-3-carboxamido)-4-(2-(trifluoromethyl)phenyl)benzoate] is 78%; for `COc1cccc(-c2ccc(C(=O)O)c(NC(=O)c3cncc(-c4ccccc4)c3)c2)c1` [35b, Sodium 4-(3-methoxyphenyl)-2-(5-phenylpyridine-3-carboxamido)benzoate] it is 96%. `CCOc1ccccc1-c1ccc(C(=O)O)c(NC(=O)c2cncc(-c3ccccc3)c2)c1` [38b, Sodium 4-(2-ethoxyphenyl)-2-(5-phenylpyridine-3-carboxamido)benzoate]: the inhibition at 10 µM worked out at 94%. For the compound `O=C(Nc1cc(-c2ccccc2OC(F)(F)F)ccc1C(=O)O)c1cncc(-c2ccccc2)c1` [40b, Sodium 2-(5-phenylpyridine-3-carboxamido)-4-(2-(trifluoromethoxy)phenyl)benzoate], the inhibition at 10 µM turned out to be 96%. As to `Cn1cccc1-c1ccc(C(=O)O)c(NC(=O)c2cncc(-c3ccccc3)c2)c1` [45b, 4-(1-methyl-1H-pyrrol-2-yl)-2-(5-phenylpyridine-3-carboxamido)benzoic acid], the inhibition at 10 µM turned out to be 90%. For `CN(C)c1cccc(-c2ccc(C(=O)O)c(NC(=O)c3cncc(-c4ccccc4)c3)c2)c1` [51b, 4-(3-(Dimethylamino)phenyl)-2-(5-phenylpyridine-3-carboxamido)benzoic acid], the inhibition at 10 µM was determined as 92%. Regarding `O=C(Nc1cc(-c2ccc[nH]2)ccc1C(=O)O)c1cncc(-c2ccccc2)c1` [58b, 2-(5-phenylpyridine-3-carboxamido)-4-(1H-pyrrol-2-yl)benzoic acid], the inhibition at 10 µM is 78%.

Regarding `O=C(Nc1cc(Nc2ccccc2)ccc1C(=O)O)c1cncc(-c2ccccc2)c1` [61b, 4-anilino-2-(5-phenylpyridine-3-carboxamido)benzoic acid], the inhibition at 10 µM came out at 86%.
